Results from the supplement of paper PMC5908809.

How the values were obtained:
[1] = tested on: SNK-6 (IL-2 2.5 ng/mL); assay: percent inhibition of viability; higher = more inhibition; settings: 72 h
[2] = tested on: NKL (IL-2 2.5 ng/mL); assay: as above; settings: 72 h
[3] = tested on: YT (IL-2 2.5 ng/mL); assay: as above; settings: 72 h
[4] = tested on: normal primary NK cells, pool 1 (3 donors), resting (IL-2 0 ng/mL); assay: as above; settings: 72 h
[5] = tested on: NK-YS (IL-2 2.5 ng/mL); assay: as above; settings: 72 h
[6] = tested on: KHYG-1 (IL-2 2.5 ng/mL); assay: as above; settings: 72 h
[7] = tested on: NK-92 (IL-2 2.5 ng/mL); assay: as above; settings: 72 h
[8] = tested on: KAI3 (IL-2 2.5 ng/mL); assay: as above; settings: 72 h
[9] = tested on: normal primary NK cells, pool 2 (3 donors) (IL-2 2.5 ng/mL); assay: as above; settings: 72 h
[10] = tested on: normal primary NK cells, pool 3 (3 donors) (IL-2 2.5 ng/mL); assay: as above; settings: 72 h
[11] = tested on: DERL-7 (IL-2 2.5 ng/mL); assay: as above; settings: 72 h
[12] = tested on: normal primary NK cells, pool 1 (3 donors) (IL-2 2.5 ng/mL); assay: as above; settings: 72 h
[13] = tested on: IMC-1 (IL-2 20 ng/mL); assay: as above; settings: 72 h
[14] = tested on: normal NK cells expanded with K562-aAPC; assay: drug sensitivity score (DSS) (DSS units); higher = more sensitive; extreme values may be limits of the assay; settings: 72 h; IL-2 2.5 ng/mL
Method: (§1)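 Drug sensitivity and resistance testing on K562-aAPC-expanded normal NK cells: 5 concentrations (10-fold steps over a 10,000-fold range), 72 h at 37 °C, viability by CellTiter-Glo normalised to DMSO and benzethonium chloride controls; DSS from the fitted curve.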

[15] = tested on: normal NK cells expanded with K562-aAPC; assay: percent inhibition of viability; higher = more inhibition; settings: 72 h, IL-2 2.5 ng/mL
Method: as §1

[16] = tested on: SNK-6 (IL-2 2.5 ng/mL); assay: drug sensitivity score (DSS) (DSS units); higher = more sensitive; extreme values may be limits of the assay; settings: 72 h
[17] = tested on: NKL (IL-2 2.5 ng/mL); assay: as above; settings: 72 h
[18] = tested on: YT (IL-2 2.5 ng/mL); assay: as above; settings: 72 h
[19] = tested on: normal primary NK cells, pool 1 (3 donors), resting (IL-2 0 ng/mL); assay: as above; settings: 72 h
[20] = tested on: NK-YS (IL-2 2.5 ng/mL); assay: as above; settings: 72 h
[21] = tested on: KHYG-1 (IL-2 2.5 ng/mL); assay: as above; settings: 72 h
[22] = tested on: NK-92 (IL-2 2.5 ng/mL); assay: as above; settings: 72 h
[23] = tested on: KAI3 (IL-2 2.5 ng/mL); assay: as above; settings: 72 h
[24] = tested on: normal primary NK cells, pool 2 (3 donors) (IL-2 2.5 ng/mL); assay: as above; settings: 72 h
[25] = tested on: normal primary NK cells, pool 3 (3 donors) (IL-2 2.5 ng/mL); assay: as above; settings: 72 h
[26] = tested on: DERL-7 (IL-2 2.5 ng/mL); assay: as above; settings: 72 h
[27] = tested on: normal primary NK cells, pool 1 (3 donors) (IL-2 2.5 ng/mL); assay: as above; settings: 72 h
[28] = tested on: IMC-1 (IL-2 20 ng/mL); assay: as above; settings: 72 h

Cn1cncc1[C@@](N)(c1ccc(Cl)cc1)c1ccc2c(c1)c(-c1cccc(Cl)c1)cc(=O)n2C [Tipifarnib] (max concentration tested 10000 nM)
percent inhibition of viability [%]
Settings | 1 nM | 10 nM | 100 nM | 1000 nM | 10000 nM
[1] | -6.05 | -1.97 | 53.1 | 67.8 | 79
[2] | -4.94 | -3.92 | 26.4 | 59.5 | 92.4
[3] | 3.74 | 11.7 | 34.3 | 55.4 | 106
[4] | -0.67 | 17.8 | 34.2 | 56.4 | 93
[5] | -3.65 | 20.6 | 59.3 | 66.9 | 90
[6] | -2.81 | 24 | 75.8 | 83 | 107
[7] | -0.73 | 9.6 | 37.6 | 61.4 | 109
[8] | 6.75 | 19.1 | 47.3 | 58.3 | 85.1
[9] | -6.39 | 6.93 | 13.5 | 23.8 | 83.5
[10] | -5.22 | 13.6 | 17.7 | 17.1 | 53.4
[11] | 1.19 | 15 | 50.5 | 55.8 | 82.4
[12] | 5.62 | 11.4 | 32.4 | 24 | 96.1
[13] | -0.42 | 7.67 | 12.7 | 14.3 | 84.9
[15] | -0.6 | 11.6 | 28.5 | 39.2 | 75.8

Settings | drug sensitivity score
[14] | 11.9
[16] | 20.7
[17] | 14.4
[18] | 16.2
[19] | 16.3
[20] | 22.5
[21] | 28.6
[22] | 17.5
[23] | 19.1
[24] | 7.58
[25] | 6.12
[26] | 18.6
[27] | 10.5
[28] | 7.09

Nc1cccc2c1C(=O)N(C1CCC(=O)NC1=O)C2=O (stereo not drawn) [Pomalidomide] (max concentration tested 10000 nM)
percent inhibition of viability [%]
Settings | 1 nM | 10 nM | 100 nM | 1000 nM | 10000 nM
[1] | -0.98 | 3.29 | 13.5 | -10.9 | 31.7
[2] | -6.14 | -8.75 | 7.72 | 18.5 | 21.2
[3] | -5.53 | -2.96 | -0.67 | -5.5 | -0.71
[4] | -1.02 | -19.1 | -32.7 | -20.7 | -23.7
[5] | -3.69 | -2.34 | -5.2 | -2.26 | -0.5
[6] | -4.54 | -1.13 | -5.7 | -4.26 | -0.94
[7] | -1.19 | -10.2 | -3.35 | -12.4 | -16.6
[8] | -0.58 | -8.97 | -7.97 | -13.6 | -12.9
[9] | -13.3 | 1.17 | -2.18 | -2.49 | -1.88
[10] | -16 | 7.94 | -8.83 | -7.7 | -5.51
[11] | -0.13 | -4.4 | 15.2 | -7.7 | -4.17
[12] | -3.59 | -0.54 | -10.1 | 9.65 | 3.39
[13] | -4 | -1.04 | -2.22 | -4.13 | -2.92
[15] | -10.8 | -9.91 | -9.37 | -11.8 | -8.13

Settings | drug sensitivity score
[14] | 0
[16] | 0.99
[17] | 3.93
[18] | 0
[19] | 0
[20] | 0
[21] | 0
[22] | 0
[23] | 0
[24] | 0
[25] | 0
[26] | 0
[27] | 0
[28] | 0
